From PubChem BioAssay (NCI)
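Tested at 5 concentrations; 48 h exposure; 96-well plates; endpoints linearly interpolated, else capped at highest concentration. GI50: concentration for 50% inhibition of growth. TGI marks complete inhibition of growth.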

Columns and labels:
Test in all cases: DTP human tumour cell line panel, 48 h
[1] = tested on: 786-0 renal
[2] = tested on: A498 renal
[3] = tested on: A549 NSCLC
[4] = tested on: ACHN renal
[5] = tested on: BT-549 breast
[6] = tested on: CAKI-1 renal
[7] = tested on: CCRF-CEM leukemia
[8] = tested on: DU-145 prostate
[9] = tested on: EKVX NSCLC
[10] = tested on: HCT-116 colon
[11] = tested on: HCT-15 colon
[12] = tested on: HL-60(TB) leukemia
[13] = tested on: HOP-62 NSCLC
[14] = tested on: HOP-92 NSCLC
[15] = tested on: HS 578T breast
[16] = tested on: HT29 colon
[17] = tested on: IGROV1 ovarian
[18] = tested on: K-562 leukemia
[19] = tested on: KM12 colon
[20] = tested on: LOX IMVI melanoma
[21] = tested on: M14 melanoma
[22] = tested on: MALME-3M melanoma
[23] = tested on: MCF7 breast
[24] = tested on: MDA-MB-231 breast
[25] = tested on: MDA-MB-435
[26] = tested on: MDA-N
[27] = tested on: MOLT-4 leukemia
[28] = tested on: NCI-H226 lung
[29] = tested on: NCI-H23 lung
[30] = tested on: NCI-H460 lung
[31] = tested on: NCI-H522 lung
[32] = tested on: NCI/ADR-RES ovarian
[33] = tested on: OVCAR-3 ovarian
[34] = tested on: OVCAR-5 ovarian
[35] = tested on: OVCAR-8 ovarian
[36] = tested on: PC-3 prostate
[37] = tested on: RPMI-8226 leukemia
[38] = tested on: RXF 393 renal
[39] = tested on: SF-268 CNS
[40] = tested on: SF-295 CNS
[41] = tested on: SF-539 CNS
[42] = tested on: SK-MEL-28 melanoma
[43] = tested on: SK-MEL-5 melanoma
[44] = tested on: SN12C renal
[45] = tested on: SNB-19 CNS
[46] = tested on: SNB-75 CNS
[47] = tested on: SR leukemia
[48] = tested on: SW-620 colon
[49] = tested on: T-47D breast
[50] = tested on: TK-10 renal
[51] = tested on: U251 CNS
[52] = tested on: UACC-257 melanoma
[53] = tested on: UACC-62 melanoma
[54] = tested on: UO-31 renal
[55] = tested on: COLO 205 colon
[56] = tested on: OVCAR-4 ovarian
[57] = tested on: SK-MEL-2 melanoma
[58] = tested on: SK-OV-3 ovarian
[59] = tested on: HCC-2998 colon

Work on `CCOC(=O)C1CCC(=O)N1C(=O)c1cccc(Cl)c1` (centres undefined) yielded a TGI [1] greater than 100 µM, a TGI [2] greater than 100 µM and a TGI [3] greater than 100 µM. For the same compound, the TGI [4] was greater than 100 µM, the TGI [5] was greater than 100 µM and the TGI [6] was greater than 100 µM. The TGI [7] was greater than 100 µM, the TGI [8] was greater than 100 µM and the TGI [9] was greater than 100 µM. For the same compound, the TGI [10] was greater than 100 µM, the TGI [11] was greater than 100 µM and the TGI [12] was greater than 100 µM. The TGI [13] was greater than 100 µM, the TGI [14] was greater than 100 µM and the TGI [15] was greater than 100 µM. It also gave a TGI [16] greater than 100 µM, a TGI [17] greater than 100 µM and a TGI [18] greater than 100 µM. It also gave a TGI [19] greater than 100 µM, a TGI [20] greater than 100 µM and a TGI [21] greater than 100 µM. The TGI [22] was greater than 100 µM, the TGI [23] was greater than 100 µM and the TGI [24] was greater than 100 µM. It also gave a TGI [25] greater than 100 µM, a TGI [26] greater than 100 µM and a TGI [27] greater than 100 µM. For the same compound, the TGI [28] was greater than 100 µM, the TGI [29] was greater than 100 µM and the TGI [30] was greater than 100 µM. It also gave a TGI [31] greater than 100 µM, a TGI [32] greater than 100 µM and a TGI [33] greater than 100 µM. The TGI [34] was greater than 100 µM, the TGI [35] was greater than 100 µM and the TGI [36] was greater than 100 µM. It also gave a TGI [37] greater than 100 µM, a TGI [38] greater than 100 µM and a TGI [39] greater than 100 µM. The TGI [40] was greater than 100 µM, the TGI [41] was greater than 100 µM and the TGI [42] was greater than 100 µM. It also gave a TGI [43] greater than 100 µM, a TGI [44] greater than 100 µM and a TGI [45] greater than 100 µM. The TGI [46] was greater than 100 µM, the TGI [47] was greater than 100 µM and the TGI [48] was greater than 100 µM. For the same compound, the TGI [49] was greater than 100 µM, the TGI [50] was greater than 100 µM and the TGI [51] was greater than 100 µM. For the same compound, the TGI [52] was greater than 100 µM, the TGI [53] was 62.4 µM and the TGI [54] was greater than 100 µM.
`CCC[CH2][Sn]([CH2]CCC)([CH2]CCC)/[C](=C/[Si](C)(C)c1ccccc1)c1ccc2c(c1)OCO2` was tested, and the GI50 [1] was 16 µM, the TGI [1] was 30.9 µM and the GI50 [2] was 30.5 µM. It also gave a TGI [2] of 70.6 µM, a GI50 [3] of 25.2 µM and a TGI [3] of 82.9 µM. It also gave a GI50 [4] of 18.4 µM, a TGI [4] of 36.2 µM and a GI50 [5] of 19.1 µM. The TGI [5] was 44.3 µM, the GI50 [6] was 16 µM and the TGI [6] was 48.2 µM. For the same compound, the GI50 [7] was 12 µM, the TGI [7] was 73.2 µM and the GI50 [55] was 18.7 µM. The TGI [55] was 39 µM, the GI50 [8] was 21.7 µM and the TGI [8] was 48.6 µM. For the same compound, the GI50 [9] was 15.2 µM, the TGI [9] was 50.7 µM and the GI50 [10] was 17.9 µM. The TGI [10] was 41 µM, the GI50 [11] was 20.5 µM and the TGI [11] was 51.8 µM. The GI50 [12] was 15.8 µM, the TGI [12] was 35.4 µM and the GI50 [13] was 23.7 µM. The TGI [13] was 50.6 µM, the GI50 [14] was 11.4 µM and the TGI [14] was 29.4 µM. It also gave a GI50 [15] of 42.6 µM, a TGI [15] greater than 100 µM and a GI50 [16] of 19.2 µM. It also gave a TGI [16] of 55.3 µM, a GI50 [17] of 16.9 µM and a TGI [17] of 37.9 µM. For the same compound, the GI50 [18] was 22.9 µM, the TGI [18] was 73.9 µM and the GI50 [19] was 16.2 µM. The TGI [19] was 34.1 µM, the GI50 [20] was 21.3 µM and the TGI [20] was 66.7 µM. The GI50 [21] was 16.8 µM, the TGI [21] was 35.2 µM and the GI50 [22] was 3.2 µM. The TGI [22] was 15 µM, the GI50 [23] was 20.7 µM and the TGI [23] was 53.7 µM. It also gave a GI50 [24] of 14.8 µM, a TGI [24] of 32.8 µM and a GI50 [25] of 15.7 µM. The TGI [25] was 31.3 µM, the GI50 [26] was 19.5 µM and the TGI [26] was 40.3 µM. For the same compound, the GI50 [27] was 17.4 µM, the TGI [27] was 83.3 µM and the GI50 [28] was 19.9 µM. It also gave a TGI [28] of 42.9 µM, a GI50 [29] of 25.6 µM and a TGI [29] of 92.9 µM. For the same compound, the GI50 [30] was 21.3 µM, the TGI [30] was 52.3 µM and the GI50 [31] was 9.71 µM. The TGI [31] was greater than 100 µM, the GI50 [32] was 26.2 µM and the TGI [32] was 86.3 µM. The GI50 [33] was 19.8 µM, the TGI [33] was 40.2 µM and the GI50 [56] was 14.9 µM. For the same compound, the TGI [56] was 36.6 µM, the GI50 [34] was 19 µM and the TGI [34] was 44 µM. It also gave a GI50 [35] of 19.1 µM, a TGI [35] of 37.9 µM and a GI50 [36] of 31.4 µM. It also gave a TGI [36] greater than 100 µM, a GI50 [37] of 20.7 µM and a TGI [37] of 77.8 µM. It also gave a GI50 [38] of 22.1 µM, a TGI [38] of 41.2 µM and a GI50 [39] of 10.7 µM. For the same compound, the TGI [39] was 98.4 µM, the GI50 [40] was 26.8 µM and the TGI [40] was 49.6 µM. For the same compound, the GI50 [41] was 36 µM, the TGI [41] was greater than 100 µM and the GI50 [57] was 23.5 µM. For the same compound, the TGI [57] was 63.5 µM, the GI50 [42] was 16.2 µM and the TGI [42] was 33.4 µM. The GI50 [43] was 15.8 µM, the TGI [43] was 30.1 µM and the GI50 [58] was 18.5 µM. It also gave a TGI [58] of 41 µM, a GI50 [44] of 19.1 µM and a TGI [44] of 39 µM. The GI50 [45] was 21.3 µM, the TGI [45] was 49.7 µM and the GI50 [46] was 58.5 µM. The TGI [46] was greater than 100 µM, the GI50 [47] was 8.61 µM and the TGI [47] was 63.9 µM. It also gave a GI50 [48] of 20.9 µM, a TGI [48] of 59.3 µM and a GI50 [49] of 24.6 µM. The TGI [49] was 62 µM, the GI50 [50] was 33.8 µM and the TGI [50] was 99.1 µM. It also gave a GI50 [51] of 18.8 µM, a TGI [51] of 40 µM and a GI50 [52] of 22.4 µM. The TGI [52] was 58.7 µM, the GI50 [54] was 18.6 µM and the TGI [54] was 33.6 µM.
`CCOC(=O)c1c(N2CCCC2)[nH]c(=O)c(C(c2ccc(N(C)C)cc2)c2c(O)c(C(=O)OCC)c(N3CCCC3)[nH]c2=O)c1O` was tested, and the TGI [1] was greater than 100 µM, the TGI [2] was greater than 100 µM and the TGI [3] was greater than 100 µM. The TGI [4] was greater than 100 µM, the TGI [5] was greater than 100 µM and the TGI [6] was greater than 100 µM. The TGI [7] was greater than 100 µM, the TGI [55] was greater than 100 µM and the TGI [8] was greater than 100 µM. The TGI [9] was greater than 100 µM, the TGI [59] was greater than 100 µM and the TGI [10] was greater than 100 µM. For the same compound, the TGI [11] was greater than 100 µM, the TGI [13] was greater than 100 µM and the TGI [14] was greater than 100 µM. It also gave a TGI [15] greater than 100 µM, a TGI [16] greater than 100 µM and a TGI [18] greater than 100 µM. It also gave a TGI [19] greater than 100 µM, a TGI [20] greater than 100 µM and a TGI [21] greater than 100 µM. The TGI [22] was greater than 100 µM, the TGI [23] was greater than 100 µM and the TGI [24] was greater than 100 µM. For the same compound, the TGI [25] was greater than 100 µM, the TGI [26] was greater than 100 µM and the TGI [27] was greater than 100 µM. For the same compound, the TGI [28] was greater than 100 µM, the TGI [29] was greater than 100 µM and the TGI [30] was greater than 100 µM. The TGI [31] was greater than 100 µM, the TGI [32] was greater than 100 µM and the TGI [33] was greater than 100 µM. The TGI [56] was greater than 100 µM, the TGI [34] was greater than 100 µM and the TGI [35] was greater than 100 µM. For the same compound, the TGI [36] was greater than 100 µM, the TGI [37] was greater than 100 µM and the TGI [38] was greater than 100 µM. It also gave a TGI [39] greater than 100 µM, a TGI [40] greater than 100 µM and a TGI [41] greater than 100 µM. For the same compound, the TGI [42] was greater than 100 µM, the TGI [43] was greater than 100 µM and the TGI [58] was greater than 100 µM. For the same compound, the TGI [44] was greater than 100 µM, the TGI [45] was greater than 100 µM and the TGI [46] was greater than 100 µM. The TGI [47] was greater than 100 µM, the TGI [48] was greater than 100 µM and the TGI [49] was greater than 100 µM. The TGI [50] was greater than 100 µM, the TGI [51] was greater than 100 µM and the TGI [52] was greater than 100 µM. The TGI [53] was greater than 100 µM and the TGI [54] was greater than 100 µM.
